# According to patent US20080213785A1, “Method of predicting a benefit of antioxidant therapy for prevention or treatment of vasclar disease in hyperglycemic individuals” (priority 2000, published 2008):
# Marks after values point to notes of the source that are not given here.
# Experiments:
# [1] = test system: macrophages; experiment: Cholesterol efflux from macrophage by serum from treated diabetic mice; conditions: for effect on cholesterol efflux activity: Hp 2-2 diabetic mice
# [2] = value for 1 mg; cited from earlier work
# [3] = CVD outcomes and Vitamin C supplementation (data not shown); assay type: in vivo, human; conditions: unselected samples or Diabetic patients
# [4] = test system: patients at high risk of cardiovascular events; experiment: HOPE study: CV outcomes with vitamin E or ramipril by haptoglobin phenotype; assay type: in vivo, human; conditions: for benefit of supplementation: unselected DM group
# Text: HOPE study and patient characteristics: The Heart Outcomes Prevention Evaluation (HOPE) study was designed to test the hypotheses that two preventive intervention strategies, namely angiotensin-converting enzyme (ACE) inhibition or vitamin E, would improve morbidity and mortality in patients at high risk of cardiovascular events compared with placebo. Patients were included in the study who were considered to be at high risk of future fatal or non-fatal cardiovascular events, by virtue of their age (>55 years), existing or previous cardiovascular disease, or diabetes. Diabetics had at least one other risk factor, either known vascular disease or other factors such as cigarette smoking, high cholesterol or hypertension. Ramipril or placebo was added to concomitant medication, which included, in a substantial proportion of patients, antihypertensive drugs (excluding ACE-I), lipid-lowering agents or aspirin. The HOPE study design and protocols have been previously described in detail (see, for example, The Heart Outcomes Prevention Evaluation Study Investigators NE J Med, 2000; 342:154-60 and […] Angioten Aldost Sys 2000; 1:18-20). Briefly, the study population consisted over 9,451 patients at high risk of CVD (3,654 DM). […] Patients were followed for a mean of 4.5 years. The primary study outcome was the composite of non-fatal MI, stroke or cardiovascular death. For samples from the HOPE Study, haptoglobin phenotyping was performed from 10 ul of plasma by polyacrylamide gel electrophoresis according to established methods (Hochberg I et al Atherosclerosis 2002; 161:441-446). A signature banding pattern is obtained from individuals who are homozygous for the 1 allele (Hp 1-1), homozygous for the 2 allele (Hp 2-2) or who are heterozygous at the haptoglobin locus (Hp 2-1). We have established 100% concordance between the haptoglobin phenotype as determined from plasma and the haptoglobin genotype as determined from genomic DNA by the polymerase chain reaction (Koch W, et al Clin Chem 2002; 277:13635-40). An unambiguous haptoglobin phenotype was obtained on greater than 99.6% of all samples assayed. Haptoglobin phenotyping was performed with no knowledge of the patients clinical or treatment status. All analyses of the HOPE Study data were carried out using SAS 6.02. Baseline characteristics of patients according to haptoglobin were compared by t tests or .chi^2 tests as appropriate. […] Patient characteristics of HOPE samples undergoing haptoglobin phenotyping: Haptoglobin phenotype was obtained on 3176 patients (1078 diabetics) from the original HOPE cohort for whom plasma was originally archived. These patients represented a randomly selected consecutive series of patients from the entire HOPE cohort.
# [5] = test system: patients at high risk of cardiovascular events; conditions: HOPE study as published; daily 400 IU for 4.5 years; not stratified by haptoglobin; cited from earlier work
# [6] = serum from diabetic Hp 1-1 mice treated orally 28 days (vitamin E 1 mg/kg/day; GPx mimetic 2 mg/kg/day)
# [7] = serum from diabetic Hp 2-2 mice treated orally 28 days (vitamin E 1 mg/kg/day; GPx mimetic 2 mg/kg/day)
# [8] = DM patients with the other haptoglobin phenotypes (Hp 1-1 and Hp 2-1)
# [9] = all patients, Hp 1-1, supplementation vs placebo
# [10] = all patients, Hp 2-1, supplementation vs placebo
# [11] = all patients, Hp 2-2, supplementation vs placebo
# [12] = entire sample, regardless of haptoglobin type
# [13] = DM patients only, Hp 2-2, listed as vitamin E
smiles,measurement,setting,value
CC1(C)CN[Se]c2ccccc21 [GPx mimetic],effect on cholesterol efflux activity,[1],increased
same,Tritiated cholesterol efflux from macrophages,[1]; [6],14.6 +/− 0.4 % per hour
same,Tritiated cholesterol efflux from macrophages,[1]; [7],14.0 +/− 0.5 % per hour
Cc1c(C)c2c(c(C)c1O)CCC(C)(CCCC(C)CCCC(C)CCCC(C)C)O2 (racemic) [all-rac-.alpha-tocopherol],specific activity,[2],1.10 IU per milligram
CC(=O)Oc1c(C)c(C)c2c(c1C)CC[C@@](C)(CCC[C@H](C)CCC[C@H](C)CCCC(C)C)O2 [RRR-.alpha-tocopherol acetate],specific activity,[2],1.36 IU per milligram
O=C1O[C@H]([C@@H](O)CO)C(O)=C1O [Vitamin C],correlation between CVD outcomes and supplementation,[3],no correlation
"CCOC(=O)[C@H](CCc1ccccc1)N[C@@H](C)C(=O)N1[C@H](C(=O)O)C[C@@H]2CCC[C@@H]21 [Ramipril, ramipril]","Relative Risk Ratio, Primary (non-fatal MI, stroke or cardiovascular death) (95% CI)","[4]; DM patients only, Hp 1-1",0.78(0.35-1.75)
same,"Relative Risk Ratio, Primary (non-fatal MI, stroke or cardiovascular death) (95% CI)","[4]; DM patients only, Hp 2-1",0.97
same,"Relative Risk Ratio, Primary (non-fatal MI, stroke or cardiovascular death) (95% CI)","[4]; DM patients only, Hp 2-2",0.57
same,"Relative Risk Ratio, Primary (non-fatal MI, stroke or cardiovascular death) (95% CI)","[4]; DM patients only, Hp 2-2, listed as ramipril",0.57
same,benefit for any of the primary CV outcomes,[4]; [8],no benefit
same,"Relative Risk Ratio, Primary (non-fatal MI, stroke or cardiovascular death) (95% CI)",[4]; [9],0.74(0.47-1.17)
same,"Relative Risk Ratio, Primary (non-fatal MI, stroke or cardiovascular death) (95% CI)",[4]; [10],0.81 (0.62-1.07)
same,"Relative Risk Ratio, Primary (non-fatal MI, stroke or cardiovascular death) (95% CI)",[4]; [11],0.76
same,"composite endpoint (non-fatal MI, stroke or cardiovascular death)",[4]; diabetic individuals in the HOPE study having a Hp 2-2 phenotype,statistically significant reduction
same,benefit for any of the primary CV outcomes,[4]; [12],no significant benefit
same,benefit of supplementation,[4],no significant benefit
CC(=O)Oc1c(C)c(C)c2c(c1C)CC[C@@](C)(CCC[C@H](C)CCC[C@H](C)CCCC(C)C)O2 [Vitamin E],"Relative Risk Ratio, CV death (95% CI)","[4]; DM patients only, Hp 1-1",0.64
same,"Relative Risk Ratio, MI (95% CI)","[4]; DM patients only, Hp 1-1",0.83
same,"Relative Risk Ratio, Primary (non-fatal MI, stroke or cardiovascular death) (95% CI)","[4]; DM patients only, Hp 1-1",0.84
same,"Relative Risk Ratio, Stroke (95% CI)","[4]; DM patients only, Hp 1-1",2.24
same,"Relative Risk Ratio, CV death (95% CI)","[4]; DM patients only, Hp 2-1",1.0(0.53-1.93)
same,"Relative Risk Ratio, MI (95% CI)","[4]; DM patients only, Hp 2-1",0.99
same,"Relative Risk Ratio, Primary (non-fatal MI, stroke or cardiovascular death) (95% CI)","[4]; DM patients only, Hp 2-1",1.08
same,"Relative Risk Ratio, Stroke (95% CI)","[4]; DM patients only, Hp 2-1",0.99(0.45-2.18)
same,"Relative Risk Ratio, CV death (95% CI)","[4]; DM patients only, Hp 2-2",0.45 (0.23-0.90) *
same,"Relative Risk Ratio, MI (95% CI)","[4]; DM patients only, Hp 2-2",0.57
same,"Relative Risk Ratio, Primary (non-fatal MI, stroke or cardiovascular death) (95% CI)","[4]; DM patients only, Hp 2-2",0.70(0.45-1.10)
same,"Relative Risk Ratio, Stroke (95% CI)","[4]; DM patients only, Hp 2-2",1.15
same,"Relative Risk Ratio, CV death (95% CI)",[4]; [13],0.45
same,"Relative Risk Ratio, MI (95% CI)",[4]; [13],0.57
same,benefit for any of the primary CV outcomes,[4]; [8],no significant benefit
same,"Relative Risk Ratio, CV death (95% CI)","[4]; all patients, Hp 1-1",1.10
same,"Relative Risk Ratio, MI (95% CI)","[4]; all patients, Hp 1-1",0.79
same,"Relative Risk Ratio, Stroke (95% CI)","[4]; all patients, Hp 1-1",1.50
same,"Relative Risk Ratio, Primary (non-fatal MI, stroke or cardiovascular death) (95% CI)",[4]; [9],0.97(0.63-1.50)
same,"Relative Risk Ratio, CV death (95% CI)","[4]; all patients, Hp 2-1",1.07(0.69-1.64)
same,"Relative Risk Ratio, MI (95% CI)","[4]; all patients, Hp 2-1",1.02(0.75-1.38)
same,"Relative Risk Ratio, Stroke (95% CI)","[4]; all patients, Hp 2-1",0.92(0.53-1.60)
same,"Relative Risk Ratio, Primary (non-fatal MI, stroke or cardiovascular death) (95% CI)",[4]; [10],0.96(0.74-1.25)
same,"Relative Risk Ratio, CV death (95% CI)","[4]; all patients, Hp 2-2",0.75
same,"Relative Risk Ratio, MI (95% CI)","[4]; all patients, Hp 2-2",0.94(0.68-1.30)
same,"Relative Risk Ratio, Stroke (95% CI)","[4]; all patients, Hp 2-2",0.85
same,"Relative Risk Ratio, Primary (non-fatal MI, stroke or cardiovascular death) (95% CI)",[4]; [11],0.92
same,benefit for any of the primary CV outcomes,[4]; [12],no significant benefit
same,benefit of supplementation,[4],no significant benefit
same,clinical benefit on cardiovascular (CV) outcomes,[5],failed to demonstrate any clinical benefit
same,effect on cholesterol efflux activity,[1],increased
same,Tritiated cholesterol efflux from macrophages,[1]; [6],16.1 +/− 0.5 % per hour
same,Tritiated cholesterol efflux from macrophages,[1]; [7],15.3 +/− 0.7 % per hour
Cc1c(C)c2c(c(C)c1O)CC[C@@](C)(CCC[C@H](C)CCC[C@H](C)CCCC(C)C)O2 [RRR-alpha-tocopherol],specific activity,[2],1.49 IU per milligram
CC(=O)Oc1c(C)c(C)c2c(c1C)CCC(C)(CCCC(C)CCCC(C)CCCC(C)C)O2 (racemic) [all-rac-α-tocopherol acetate],specific activity,[2],1.00 IU per milligram
